Test results from patent publication US9163018B2, “Method of treatment of age-related macular degeneration (AMD)” (Prana Biotechnology Limited, priority 2006, dated 2015).

Tests used:
Aβ 1-42 = target: T1, Aβ 1-42 (Homo sapiens, UniProt P05067); assay: Fluorometric H2O2 assay (inhibition of Abeta H2O2 production); assay type: biochemical; details: concentration required to inhibit 50% of Abeta H2O2 production; read-out: H2O2 IC50
T1 construct: The reaction solutions contained Aβ 1-42 at concentrations
Method in brief: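 Reactions in PBS pH 7.4 at 37 C for 60 min, containing Aβ, copper and test compound. H2O2 output read as fluorescence of HRP-coupled deacetylated DCF. Fluorescence converted to H2O2 concentration via H2O2 standards.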

[1] = tested on: primary cortical neuronal cultured cells; assay: Test compound cytotoxicity, MTS assay, primary cortical neuronal cultures; assay type: cell-based, mouse; details: for Cytotox (% viable) Neuronal cells at 1 μM: 1 μM test compound; for Cytotox (% viable) Neuronal cells at 10 μM: 10 μM test compound
Method in brief: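 Primary cortical neurons were cultured five days in Neurobasal/B27, then exposed on day six to compounds (from 2.5 mM DMSO stocks) in medium minus antioxidants, in triplicate for 4 days at 37° C. Viability was measured by MTS, 2 h at 37° C, absorbance at 560 nm.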

[2] = tested on: M17 human neuroblastoma cells; assay: Cytotoxicity, M17 human neuroblastoma cells; assay type: cell-based; details: for Cytotox (% viable) M17 cells at 1 μM: 1 μM test compound; for Cytotox (% viable) M17 cells at 10 μM: 10 μM test compound
Method: Assay 3. MTS Assay for Cell Viability
Cell viability is determined using the MTS assay. Culture medium is replaced with fresh neurobasal medium plus B27 supplements minus antioxidants. 1/10th volume MTS solution (Cell Titre 96 Aqueous One, Promega Corporation) and incubated at 37° C., 2 hrs. 200 microliter aliquots are measured with a spectrophotometer at 560 nm.

[3] = tested on: Abeta in extract of post-mortem human AD brain tissue; assay: BAS: human brain amyloid solubilization assay; assay type: biochemical; details: max effect across the concentration range, referenced to baseline PBS
Method: Assay 5. Human Brain Amyloid Solubilization Assay
This assay was performed in order to assess the ability of a test compound to mobilise Aβ, as an example form of amyloid, from the insoluble to the soluble phase of an extract of tissue from post mortem human AD brain.
Up to 0.5 g of plaque-bearing cortex without meninges was homogenized using a DIAX 900 homogenizer (Hendolph and Co, Kelheim, Germany) or other suitable device for three 30-second periods at full speed in 2 ml of ice-cold phosphate-buffered saline, pH 7.4. To obtain the phosphate-buffered saline-extractable fraction, the homogenate was centrifuged at 100,000×g for 30 min and the supernatant removed. Alternatively, the tissue was freeze dried then pulverized to form a powder which was then weighed out into aliquots for extraction as above. Supernatant, either freeze-dried and resuspended or in unconcentrated form, was dissolved in 200 μl of Tris-Tricine sodium dodecyl sulfate (SDS) sample buffer pH 8.3 containing 8% SDS, 10% 2-mercaptoethanol. Aliquots (10 μl) were then boiled for 10 minutes before SDS-polyacrylamide gel electrophoresis. The insoluble fraction of the cortical samples was obtained by resuspending the initial pelleted sample in 1 ml of phosphate-buffered saline, A 50-μl aliquot of this suspension was then boiled in […] of sample buffer as above.
Tris-Tricine polyacrylamide gel electrophoresis was performed by loading appropriately diluted samples on to 10% to 20% gradient gels (Novex, San Diego, Calif.) followed by transfer on to 0.2-μm nitrocellulose membrane (Bio-Rad, Hercules, Calif.). Aβ was detected by using monoclonal antibody W02, which detects residues 5 through 8, […] (or another suitable antibody) in conjunction with horseradish peroxidase-conjugated rabbit anti-mouse IgG (Dako, Denmark), and visualized by using enhanced chemiluminescence (eg ECL; Amersham Life Science, Buckinghamshire, UK). Each gel included three lanes containing 0.5, 1, and 2 ng of synthetic Aβ40 (Keck Laboratory, Yale University, New Haven, Conn.) as reference standards.
Blot films were scanned by using a suitable imaging system such as the UVP gel documentation system, and densitometry performed using suitable software, eg UVP Labworks. The dynamic range of the film/scanner was determined by using a step tablet (No. 911ST600, Kodak, Rochester N.Y.), a calibrated film exposed by the manufacturer to provided steps of known increasing intensity. The quantifiable range of signal intensity for densitometric analysis of the mono- and dimeric Aβ bands was based on the comparison with a curve obtained by scanning and densitometry of the step tablet.
All samples were analyzed at least twice, and gel loadings and dilutions were adjusted to fit within the quantifiable region of the standard curve. The proportion of ‘soluble’ to ‘insoluble’ Aβ may be used to determine the efficiency of extraction of a test compound compared with the efficiency of a known compound. The insoluble Aβ being comprised of the pelletable fraction derived from the insoluble amyloid plaque from the above cortical samples and the soluble fraction comprising monomeric and/or oligomeric soluble Aβ.

[4] = target: T2, Abeta:Zn (25:50 μM) Synthetic Aggregations (Homo sapiens, UniProt P05067); assay: Disaggregation of Abeta:Zn synthetic aggregates (ThT fluorescence); assay type: biochemical; details: for Disaggregation % Aggregate reduction at 5 μM: 5 μM test compound; for EC50: Abeta:Zn 25:50 μM aggregates
T2 construct: PB Compound Mediated Dissolution of Aggregated Abeta 1-42; purchased Keck Laboratory, Yale University School of Medicine
Method in brief: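 ThT signal (excitation 450 nm, emission 480 nm) measured after compounds at final 1, 5, 10, 25 and 50 μM acted 2 h at 37 degrees on preformed aggregates. Those aggregates came from 24 h rotating incubation of 25 μM Abeta1-42, 50 μM ZnCl2 and 50 μM ThT in PBS pH 6.6.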

[5] = Mice plasma concentration after oral dose; assay type: in vivo; details: 30 min to 4 h after single or repeat oral dose of 30 mg/kg
Aβ deposits = details: 9 weeks; for Tg Mice % difference from control in Amyloid plaque abundance / Tg Mice % difference from control in insoluble brain amyloid burden / Tg Mice % difference from control in soluble brain amyloid burden: daily oral gavage 30 mg/kg, 13-14 months old transgenic mice
[6] = Toxicity, visual observations in mice; details: 30 mg/kg; duration and visual observations
[7] = tested on: dityrosine oligomerization; assay: CuTy: inhibition of dityrosine oligomerization; assay type: biochemical; details: referenced to in-house standard (set as 100% inhibition)

T1 sequence (P05067 672-713 limits assumed): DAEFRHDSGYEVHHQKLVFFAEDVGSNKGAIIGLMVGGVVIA
T2 sequence (P05067 672-713 limits assumed): as above

Compound | IC50 (Aβ 1-42) | Cytotox (% viable) Neuronal cells at 1 μM [1] | Cytotox (% viable) Neuronal cells at 10 μM [1] | Cytotox (% viable) M17 cells at 1 μM [2] | Cytotox (% viable) M17 cells at 10 μM [2] | BAS max effect [3] | Disaggregation % Aggregate reduction at 5 μM [4] | EC50 [4] | Mice plasma concentration [5] | Tg Mice % difference from control in Amyloid plaque abundance (Aβ deposits) | Tg Mice % difference from control in insoluble brain amyloid burden (Aβ deposits) | Tg Mice % difference from control in soluble brain amyloid burden (Aβ deposits) | Toxicity at 30 mg/kg [6] | CuTy % inhibition of dityrosine oligomerization [7] | Tg Mice Amyloid plaque abundance at 3 mg/kg (Aβ deposits; daily oral gavage 3 mg/kg) | Tg Mice soluble brain amyloid burden at 3 mg/kg (Aβ deposits; daily oral gavage 3 mg/kg) | Tg Mice % difference in insoluble brain amyloid burden at 3 mg/kg (Aβ deposits; daily oral gavage 3 mg/kg, ex-outlier)
CCNCc1ccc2c(Cl)cc(Cl)c(O)c2n1.Cl [PB 1051] | 0.38 µM | 87% | 56% | 78.3% | 44% | 270% | 22.3% | > 20 µM | Up to 403 ng/ mL ng/mL | −39% | −21% | slight increase | 10 days, none | – | – | – | –
Oc1c(Cl)cc(Cl)c2ccc(-c3ccccn3)nc12 [PB 1052] | 0.64 µM | 55% | 31% | – | – | 212% | 62.8% | 3.3 µM | – | Decrease insol, Decrease sol, Decrease plaque | Decrease insol, Decrease sol, Decrease plaque | Decrease insol, Decrease sol, Decrease plaque | – | – | – | – | –
O=c1c2c(Cl)cc(Cl)c(O)c2ncn1CCN1CCCC1 [PB 1075] | – | 104% | 91% | 103.6% | 101.3% | – | 0% | > 20 µM | Up to 520 ng/ mL in mice ng/mL | −23% | Increase | decrease | 14 days, 1 of 4 death | – | – | – | –
O=c1c2c(Cl)cc(Cl)c(O)c2ncn1Cc1cccc(Cn2cnc3c(O)c(Cl)cc(Cl)c3c2=O)n1 [PB 1101] | 4.1 µM | 89% | 67% | 94.9% | 26.8% | – | 45% | – | – | – | – | – | 10 days, none | 10% inhibition | – | – | –
CCC(C)n1cnc2c(O)c(Cl)cc(Cl)c2c1=O (centres unmarked) [PB 1112] | – | 94% | 67% | 99.2% | 68.6% | – | 46.4% | > 20 µM | Up to 2949 ng/ mL ng/mL | – | – | – | 10 days, none | CuTy: 125% inhibition | – | – | –
Br.CCN(CC)Cc1nc2c(O)c(Cl)cc(Cl)c2c(=O)[nH]1 [PB 1128] | – | 100.6% | 93.7% | 106.5% | 99.1% | – | 41% | – | Up to 2289 ng/ mL ng/mL | – | – | – | 10 days, none | CuTy: 100% inhibition | – | – | –
Br.CN(C)Cc1nc2c(O)c(Cl)cc(Cl)c2c(=O)[nH]1 [PB 1147] | – | – | – | 94.7% | 100.3% | – | 12.5% | > 20 µM | Up tp 642.6 ng/ mL ng/mL | – | – | – | 10 days, none | CuTy: 100% inhibition | – | – | –
CCCc1cnc2c(O)c(I)ccn2c1=O [PB 1151] | 0.33 µM | – | – | 80.8% | 47.6% | – | 57% | 5.6 µM | Up to 11742 ng/ ml ng/mL | – | – | – | – | – | No change | No change | −24%
CCCn1cnc2c(O)c(I)ccc2c1=S [PB 1165] | 0.89 µM | – | – | 96.7% | 107.1% | – | 52% | 4.7 µM | Up tp 1593 ng/ ml ng/mL | Decrease | No change | No change | 10 days, none | – | – | – | –
O=C1NC(=O)c2cc(-n3cnc4c(O)c(Cl)cc(Cl)c4c3=O)ccc21 [PB 1247] | 0.56 µM | – | – | 101.2% | 110.8% | – | – | – | – | – | – | – | 10 days, none | CuTy: 150% inhibition | – | – | –
CCc1c(O)c(=O)ccn1CC.Cl [PB 1270] | > 10 µM | – | – | – | – | – | – | – | – | – | – | – | – | CuTy: 80% inhibition | – | – | –
CC(C)Cn1c(CN(C)C)nc2c(O)c(Cl)cc(Cl)c2c1=O.Cl [PB 1271] | 0.17 µM | – | – | 104.4% | 61.5% | – | – | – | – | – | – | – | – | CuTy: 50% inhibition | – | – | –
